# Article PMC6533283, “Deciphering the regulatory and catalytic mechanisms of an unusual SAM-dependent enzyme” (Signal Transduction and Targeted Therapy, 2019)
# Where “and” joins values, the source holds several entries; their conditions need not be identical. Identical values can stand only once.
# B1: LepI-Δ15 (domain or fragment, Aspergillus flavus, UniProt B8NJH3 16-387, looked up)
# chain: QSTDQFGRAEINDALRELQYSLETPFDTVMRMSLDTCQVAVARIGSDLGLFKHLSQCASPQSAEELADHLGCGRELMSRLLRYMASVRMVQQTDDIKYISSNITQTLAVPGLEAGMRHAFENLWPVLMALPDFLAERKYPDIVDAKDTAFQKAFNTDQDCFHWLATQPTRIANFKVLLTDERTPNFLSTFPLEKELGSWSAEPEKALFVDIGGGMGHACIRLREKYPNQPGRVILQDLPPVLQAAQATLPLSGIESMPHNFHTPQPVQGAKFYFLRLILRDFPDHQALEILQNIVPAMDAESRIVIDDGVPPEKGARWAETGTDICIMSALGSKERTQRQWEELAAKAGLQLQALYQYTWPVVNAAMVFSLQ
# notes: LepI of Aspergillus flavus with an N-terminal deletion (Δ15, removes helix α1); N-terminal truncation designed from the structure to disrupt dimerization; also called α1 single deletion of LepI; α1 single deleted enzyme; source: E. coli, purified as described for LepI
# B2: leporin biosynthesis enzyme LepI (enzyme, Aspergillus flavus)
# chain: METVAAIKTLIQQLAQSTDQFGRAEINDALRELQYSLETPFDTVMRMSLDTCQVAVARIGSDLGLFKHLSQCASPQSAEELADHLGCGRELMSRLLRYMASVRMVQQTDDIKYISSNITQTLAVPGLEAGMRHAFENLWPVLMALPDFLAERKYPDIVDAKDTAFQKAFNTDQDCFHWLATQPTRIANFKVLLTDERTPNFLSTFPLEKELGSWSAEPEKALFVDIGGGMGHACIRLREKYPNQPGRVILQDLPPVLQAAQATLPLSGIESMPHNFHTPQPVQGAKFYFLRLILRDFPDHQALEILQNIVPAMDAESRIVIDDGVPPEKGARWAETGTDICIMSALGSKERTQRQWEELAAKAGLQLQALYQYTWPVVNAAMVFSLQ
# notes: LepI, SAM-dependent enzyme of the leporin biosynthesis gene cluster of Aspergillus flavus; codon-optimized gene in pET-15b between NdeI and XhoI; Homodimer in the asymmetric unit of the crystal; Endogenous SAM and MTA co-purified with the protein; A selenomethionine form was used for phasing; also called wild-type (WT) LepI; native-LepI; source: E. coli BL21 (DE3), purified (Ni resin, …)
# Legend:
# [1] = target: T1, LepI (Aspergillus flavus, UniProt B8NJH3); assay: HPLC assay of retro-Claisen rearrangement of compound […], rescue of SAH/MTA inhibition; assay type: biochemical; conditions: 1 mM SI with 1 mM SAH or 1 mM MTA, 300 nM LepI, pH 8.0, 30 °C; SAM analogue, activator
# T1 construct: codon-optimized gene in pET-15b (NdeI/XhoI), N-terminal His tag, E. coli BL21(DE3); homodimer; SAM and MTA partly copurify
# [2] = target: T1, LepI; assay: HPLC assay of retro-Claisen rearrangement of compound […]; assay type: biochemical; conditions: read-out: % inhibition at 0.5 mM
# [3] = target: the molecule itself; assay: SEC; analytical gel filtration, Superdex 200 Increase 10/30 GL, protein at 1 mg/mL, 20 mM Na2HPO4, 50 mM NaCl, pH 8.0; sizes by standard protein markers
# [4] = target: the molecule itself; assay: crystal structure; LepI crystals grown in 0.15 M bis-Tris pH 7.0, 40% PEG 400; structures with SAM/MTA (1.7 Å), SAH (2.7 Å) and SAM/compound 1 (2.2 Å); two molecules in the asymmetric unit
molecule,measurement,setting,value
Nc1ncnc2c1ncn2[C@@H]1O[C@H](C[C@@H](N)CC[C@H](N)C(=O)O)[C@@H](O)[C@H]1O [Sinefungin],"HPLC assay of retro-Claisen rearrangement of compound 1, rescue of SAH/MTA inhib",[1],both SAM and SI completely rescued LepI activity for retro-Claisen rearrangement
CSC[C@H]1O[C@@H](n2cnc3c(N)ncnc32)[C@H](O)[C@@H]1O [MTA],inhibition at 500 µM,[2],30%
B1,stoichiometry N,[3],2 and 4
B2,binding result,[4],binds
